Test results reported in the NIST ThermoML archive (doi:10.1016/j.jct.2003.12.005).
Numbers after ± are expanded uncertainties.

What was measured:
[1] = 101.3 kPa, Liquid
[2] = xn = mol fraction of the nth substance listed; conditions: 101.3 kPa, Liquid

CCC(C)O (centres undefined) [butan-2-ol]
[1]
Conditions | mass density [kg/m3] | speed of sound [m/s] | viscosity [mPa·s]
293.15 K | 806.8 ± 0.3 | 1230 ± 2 | 3.623 ± 0.086
298.15 K | 802.7 ± 0.3 | 1212 ± 2 | 2.995 ± 0.072
303.15 K | 798.5 ± 0.3 | 1194 ± 2 | 2.493 ± 0.061

CCC(C)O (centres undefined) [butan-2-ol] + CCCCCCCC
[2]
Conditions | mass density, 293.15 K [kg/m3] | mass density, 298.15 K [kg/m3] | mass density, 303.15 K [kg/m3] | speed of sound, 293.15 K [m/s] | speed of sound, 298.15 K [m/s] | speed of sound, 303.15 K [m/s] | viscosity, 293.15 K [mPa·s] | viscosity, 298.15 K [mPa·s] | viscosity, 303.15 K [mPa·s]
x1 = 0.0481 | 704.6 ± 0.3 | 700.5 ± 0.4 | 696.4 ± 0.4 | 1190 ± 2 | 1169 ± 2 | 1148 ± 2 | 0.541 ± 0.015 | 0.508 ± 0.014 | 0.478 ± 0.014
x1 = 0.0974 | 707.2 ± 0.3 | 703.1 ± 0.3 | 698.9 ± 0.4 | 1187 ± 2 | 1167 ± 2 | 1146 ± 2 | 0.554 ± 0.015 | 0.519 ± 0.014 | 0.488 ± 0.014
x1 = 0.1984 | 713.3 ± 0.3 | 709.2 ± 0.3 | 704.9 ± 0.3 | 1184 ± 2 | 1163 ± 2 | 1143 ± 2 | 0.582 ± 0.016 | 0.544 ± 0.015 | 0.511 ± 0.014
x1 = 0.289 | 719.4 ± 0.3 | 715.2 ± 0.3 | 711 ± 0.3 | 1182 ± 2 | 1161 ± 2 | 1141 ± 2 | 0.624 ± 0.017 | 0.579 ± 0.016 | 0.541 ± 0.015
x1 = 0.3964 | 727.7 ± 0.3 | 723.5 ± 0.3 | 719.1 ± 0.3 | 1181 ± 2 | 1161 ± 2 | 1141 ± 2 | 0.697 ± 0.018 | 0.644 ± 0.017 | 0.599 ± 0.016
x1 = 0.4923 | 736.2 ± 0.3 | 731.9 ± 0.3 | 727.5 ± 0.3 | 1183 ± 2 | 1162 ± 2 | 1142 ± 2 | 0.78 ± 0.02 | 0.713 ± 0.019 | 0.645 ± 0.017
x1 = 0.5931 | 746.5 ± 0.3 | 742.1 ± 0.3 | 737.8 ± 0.3 | 1187 ± 2 | 1166 ± 2 | 1146 ± 2 | 0.927 ± 0.024 | 0.84 ± 0.022 | 0.761 ± 0.02
x1 = 0.6922 | 758.1 ± 0.3 | 753.8 ± 0.3 | 749.4 ± 0.3 | 1193 ± 2 | 1173 ± 2 | 1153 ± 2 | 1.162 ± 0.029 | 1.031 ± 0.026 | 0.919 ± 0.023
x1 = 0.7987 | 772.5 ± 0.3 | 768.2 ± 0.3 | 763.9 ± 0.3 | 1202 ± 2 | 1182 ± 2 | 1163 ± 2 | 1.574 ± 0.04 | 1.361 ± 0.034 | 1.191 ± 0.029
x1 = 0.8988 | 788.3 ± 0.3 | 784 ± 0.3 | 779.7 ± 0.3 | 1214 ± 2 | 1195 ± 2 | 1176 ± 2 | 2.267 ± 0.055 | 1.932 ± 0.047 | 1.662 ± 0.04
x1 = 0.9495 | 797.2 ± 0.3 | 793 ± 0.3 | 788.8 ± 0.3 | 1222 ± 2 | 1203 ± 2 | 1185 ± 2 | 2.809 ± 0.068 | 2.353 ± 0.057 | 1.99 ± 0.048
x1 = 1 | 806.8 ± 0.3 | 802.7 ± 0.3 | 798.5 ± 0.3 | 1230 ± 2 | 1212 ± 2 | 1194 ± 2 | 3.623 ± 0.086 | 2.995 ± 0.072 | 2.493 ± 0.061

CCC(C)O (centres undefined) [butan-2-ol] + CCCCCCCCCC
[2], x1 = 1
Conditions | mass density [kg/m3] | speed of sound [m/s] | viscosity [mPa·s]
293.15 K | 806.8 ± 0.3 | 1230 ± 2 | 3.623 ± 0.058
298.15 K | 802.7 ± 0.3 | 1212 ± 2 | 2.995 ± 0.049
303.15 K | 798.5 ± 0.3 | 1194 ± 2 | 2.493 ± 0.042

CCC(C)O (centres undefined) [butan-2-ol] + CCCCCCCCCCCC
[2], x1 = 1
Conditions | mass density [kg/m3] | speed of sound [m/s] | viscosity [mPa·s]
293.15 K | 806.8 ± 0.3 | 1230 ± 2 | 3.623 ± 0.058
298.15 K | 802.7 ± 0.3 | 1212 ± 2 | 2.995 ± 0.049
303.15 K | 798.5 ± 0.3 | 1194 ± 2 | 2.493 ± 0.042

CCCCCCCCCC [decane]
[1]
Conditions | mass density [kg/m3] | speed of sound [m/s] | viscosity [mPa·s]
293.15 K | 729.9 ± 0.5 | 1254 ± 2 | 0.911 ± 0.015
298.15 K | 726.1 ± 0.5 | 1235 ± 2 | 0.845 ± 0.014
303.15 K | 722.3 ± 0.5 | 1215 ± 2 | 0.787 ± 0.013
